Results taken from patent US20090018150A1, “5-Ht2b Receptor Antagonists” (ASTERAND UK LIMITED, priority 2003, published 2009).
Structures can show the parent of a compound that is named as a salt.

Assays:
[1] = target: T1, cloned human 5-HT2A receptor (Homo sapiens, UniProt P28223); experiment: Human 5-HT2A receptor binding assay; conditions: [3H]ketanserin (1 nM) displacement, CHO-K1 cell membranes; read-out: 5-HT2A pKi (converted)
T1 construct: purchased Euroscreen; host or cells: CHO-K1
Description: (§1) The binding affinity of ligands for human 5-HT2A and 5-HT2C receptors was determined using the following assay.
Membrane preparations from CHO-K1 cells expressing the cloned human 5-HT2A receptor were obtained (Euroscreen). The membranes were thawed rapidly and diluted in assay buffer containing Tris-HCl (50 mM, pH 7.7). The membranes were resuspended by homogenisation, prior to adding 15 μg of membranes to assay wells containing [3H]ketanserin (1 nM), assay buffer (50 mM Tris at pH 7.4) containing pargyline (10 μM), and test compounds (1×10^−10 to 1×10^−4M). Non specific binding was determined in the presence of 100 μM mianserin. After 15 minutes incubation at 37° C., the assay mixture was filtered through a combination of GF-C and GF-B filters, pre-soaked in 0.05% Brij, using a Brandel cell harvester, and were washed three times using ice cold Tris-HCl buffer (50 mM). Radioactivity retained on the filters was determined by liquid scintillation counting. For each test compound, the concentration that inhibited binding of [^3H]ketanserin by 50% was determined using curve fitting software (Prism). Kd values (concentration of ketanserin required to occupy 50% of the receptor binding sites at equilibrium) determined from saturation binding studies were then used to calculate inhibition dissociation constants (Ki) using the following equation: […]

[2] = target: T2, cloned human 5-HT2C receptor (Homo sapiens, UniProt P28335); experiment: Human 5-HT2C receptor binding assay; conditions: [3H]mesulergine (1 nM) displacement, CHO-K1 cell membranes; read-out: 5-HT2C pKi (converted)
T2 construct: purchased Euroscreen; host or cells: CHO-K1
T2 sequence (P28335 33-458): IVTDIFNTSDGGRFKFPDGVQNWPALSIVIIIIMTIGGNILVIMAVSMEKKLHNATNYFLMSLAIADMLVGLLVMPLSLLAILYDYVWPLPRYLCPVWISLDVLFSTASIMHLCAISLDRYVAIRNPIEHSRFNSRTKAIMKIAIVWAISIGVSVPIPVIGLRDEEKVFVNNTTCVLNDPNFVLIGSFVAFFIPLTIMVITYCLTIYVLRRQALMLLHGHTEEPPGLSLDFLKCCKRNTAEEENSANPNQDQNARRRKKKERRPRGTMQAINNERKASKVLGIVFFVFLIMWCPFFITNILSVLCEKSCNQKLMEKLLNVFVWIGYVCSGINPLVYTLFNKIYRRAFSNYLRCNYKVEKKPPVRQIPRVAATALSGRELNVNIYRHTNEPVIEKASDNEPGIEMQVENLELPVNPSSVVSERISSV
Description: as §1
Membrane preparations from CHO-K1 cells expressing the cloned human 5-HT2C receptor were obtained (Euroscreen). The membranes were thawed rapidly and diluted in assay buffer containing Tris-HCl (50 mM, pH 7.7), ascorbic acid (0.1%) and pargyline (10 μM). The membranes were resuspended by homogenisation, prior to adding 6 μg of membranes to assay wells containing [^3H]mesulergine (1 nM), assay buffer (50 mM Tris at pH 7.7 and 0.1% ascorbic acid) containing pargyline (10 μM), and test compounds (1×10^−10 to 1×10^−4M). Non specific binding was determined in the presence of 100 μM mianserin. After 30 minutes incubation at 37° C., the assay mixture was filtered through a combination of GF-C and GF-B filters, pre-soaked in 1% bovine serum albumin, using a Brandel cell harvester, and were washed three times using ice cold Tris-HCl buffer (50 mM). Radioactivity retained on the filters was determined by liquid scintillation counting. For each test compound, the concentration that inhibited binding of [^3H]mesulergine by 50% was determined using curve fitting software (Prism). Kd values (concentration of mesulergine required to occupy 50% of the receptor binding sites at equilibrium) determined from saturation binding studies were then used to calculate inhibition dissociation constants (Ki) using the following equation: […]

[3] = target: T3, human cloned 5-HT2B receptors (Homo sapiens, UniProt P41595); experiment: Human cloned 5-HT2B receptor binding assay; conditions: [3H]LSD (1 nM) displacement, membranes of CHO-K1 cells expressing cloned 5-HT2B receptor; read-out: 5-HT2B pKi (converted)
T3 construct: expressed in transfected cells; host or cells: CHO-K1
T3 sequence (P41595 whole entry): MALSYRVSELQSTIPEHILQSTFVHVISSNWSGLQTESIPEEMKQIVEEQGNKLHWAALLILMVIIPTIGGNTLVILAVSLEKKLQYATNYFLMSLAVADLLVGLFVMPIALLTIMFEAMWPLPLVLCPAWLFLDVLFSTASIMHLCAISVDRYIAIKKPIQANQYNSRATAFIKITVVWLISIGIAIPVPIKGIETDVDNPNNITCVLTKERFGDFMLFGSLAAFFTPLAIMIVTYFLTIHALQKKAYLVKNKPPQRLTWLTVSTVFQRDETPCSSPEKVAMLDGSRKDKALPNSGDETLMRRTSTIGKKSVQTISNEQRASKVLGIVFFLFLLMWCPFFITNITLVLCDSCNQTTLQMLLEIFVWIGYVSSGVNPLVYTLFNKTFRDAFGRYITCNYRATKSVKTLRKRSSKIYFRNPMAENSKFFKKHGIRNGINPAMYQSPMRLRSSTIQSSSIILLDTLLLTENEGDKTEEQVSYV
Description: The binding affinity of the compounds for human cloned 5-HT2B receptors was determined using the following assay.
CHO-K1 cells expressing cloned 5-HT2B receptor were maintained in Ultra-CHO medium containing 400 μg/ml of G418, 100 U/ml penicillin, 100 μg/ml streptomycin, 2.5 μg/ml fungizone and 1-foetal bovine serum, in 95/5% O2/CO2 at 37° C. The cells were harvested using 0.25% trypsin and were centrifuged at 800 rpm for 8 minutes. The cells were homogenised in 50 mM HEPES buffer containing 1 mM disodium EDTA and 1 mM PMSF at pH 7.4, using a Dounce homogeniser (20 strokes). The homogenate was centrifuged at 2280 rpm (1000 g) and 4° C. for 10 minutes, after which the supernatant was removed by decanting. The pellet was re-homogenised as above, and the resulting supernatant removed and combined with that already obtained. The supernatant solution was then centrifuged at 18300 rpm (40000 g) for 10 minutes at 4° C. using a Sorvall centrifuge. The supernatant was removed, and the pellet was re-suspended in 50 mM buffer at pH 7.4 using a Ultra-turrax T25 Polytron, before centrifugation again at 40000 g as above. This wash procedure was repeated, after which the membrane preparation was stored at a concentration of 1 mg/ml at −80° C. until use.
The membranes were thawed rapidly and diluted in assay buffer containing Tris-HCl (50 mM, pH 7.4), ascorbic acid (0.1°) and calcium chloride (4 mM). The membranes were homogenised to resuspend them, prior to adding 10 or 15 μg of membranes to assay wells containing [^3H]LSD (1 nM), assay buffer (50 mM Tris, 4 mM calcium chloride and 0.1° ascorbic acid) containing pargyline (10 μM), and the test compounds (1×10^−10 to 1×10^−4M). Non specific binding was determined in the presence of 100 μM 5-HT. After 30 minutes incubation at 37° C., the assay mixture was filtered through a combination of GF-C and GF-B filters, pre-soaked in 1% polyethyleneimine, using a Brandel cell harvester, and were washed three times using 50 mM Tris-HCl. Radioactivity retained on the filters was determined by liquid scintillation counting. For each test compound, the concentration that inhibited binding of [^3H]LSD by 50% was determined using curve fitting software (Prism). Kd values (concentration of LSD required to occupy 50% of the receptor binding sites at equilibrium) determined from saturation binding studies were then used to calculate inhibition dissociation constants (Ki) using the following equation: […]
This approach follows that set out in Kenakin, T. P. Pharmacologic analysis of drug-receptor interaction. Raven Press, New York, 2nd Edition.

T1 sequence (P28223 whole entry): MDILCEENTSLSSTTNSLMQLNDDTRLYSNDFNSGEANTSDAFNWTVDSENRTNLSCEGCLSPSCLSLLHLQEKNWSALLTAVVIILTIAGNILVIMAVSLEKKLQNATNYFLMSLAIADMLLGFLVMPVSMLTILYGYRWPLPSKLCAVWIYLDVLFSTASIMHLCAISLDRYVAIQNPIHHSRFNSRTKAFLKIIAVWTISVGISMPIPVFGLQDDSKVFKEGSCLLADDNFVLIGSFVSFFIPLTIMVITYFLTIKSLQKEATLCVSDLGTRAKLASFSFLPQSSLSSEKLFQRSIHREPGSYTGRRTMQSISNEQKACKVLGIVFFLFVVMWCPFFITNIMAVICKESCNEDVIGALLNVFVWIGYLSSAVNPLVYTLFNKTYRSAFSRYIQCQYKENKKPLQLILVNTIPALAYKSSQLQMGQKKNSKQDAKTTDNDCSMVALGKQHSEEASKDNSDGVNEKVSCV

| Ki [1] | Ki [2] | Ki [3] | SMILES |
| --- | --- | --- | --- |
| > 10000 nM | > 1000 nM | < 1000 nM | Cc1cc(Nc2ccccc2)nc(N)n1 [Compound 2A, N^4-phenyl-6-methyl-pyrimidine-2,4-diamine hydrochloric acid] |
| > 1000 nM | > 1000 nM | < 1000 nM | Cc1cc(Nc2ccc3ncsc3c2)nc(N)n1 [Compound 2AB, N^4-benzothiazol-6-yl-6-methyl-pyrimidine-2,4-diamine hydrochloride] |
| > 1000 nM | > 1000 nM | < 1000 nM | COc1ccc(Nc2cc(C)nc(N)n2)cc1Cl [Compound 2AC, N^4-(3-chloro-4-methoxy-phenyl)-6-methyl-pyrimidine-2,4-diamine, hydrochloride] |
| > 316 nM | > 1000 nM | < 1000 nM | Cc1cc(Nc2cccc(Oc3ccccc3)c2)nc(N)n1 [Compound 2AD, 6-methyl-N^4-(3-phenoxy-phenyl)-pyrimidine-2,4-diamine hydrochloride] |
| > 10000 nM | > 316 nM | < 100 nM | Cc1cc(Nc2ccc(Oc3ccccc3)cc2)nc(N)n1 [Compound 2AE, 6-methyl-N^4-(4-phenoxy-phenyl)-pyrimidine-2,4-diamine hydrochloride] |
| > 3160 nM | > 1000 nM | < 1000 nM | Cc1cc(Nc2cccc(Br)c2)nc(N)n1 [Compound 2AF, N^4-(3-bromo-phenyl)-6-methyl-pyrimidine-2,4-diamine trifluoroacetic acid] |
| > 1000 nM | > 316 nM | < 100 nM | Cc1cc(Nc2cc(Br)ccc2Br)nc(N)n1 [Compound 2AJ, N^4-(2,5-dibromo-phenyl)-6-methyl-pyrimidine-2,4-diamine trifluoroacetic acid] |
| – | – | < 100 nM | Cc1cc(Nc2ccc(C)c(I)c2)nc(N)n1 [Compound 2AK, N^4-(3-iodo-4-methyl-phenyl)-6-methyl-pyrimidine-2,4-diamine trifluoroacetic acid] |
| > 10000 nM | > 316 nM | < 1000 nM | Cc1cc(Nc2ccc(I)cc2)nc(N)n1 [Compound 2E, N^4-(4-iodo-phenyl)-6-methyl-pyrimidine-2,4-diamine hydrochloride] |
| > 10000 nM | > 10000 nM | < 1000 nM | Cc1cc(Nc2ccc(Br)cc2)nc(N)n1 [Compound 2F, N^4-(4-bromo-phenyl)-6-methyl-pyrimidine-2,4-diamine hydrochloride] |
| > 3160 nM | > 316 nM | < 100 nM | Cc1cc(Nc2cccc(I)c2)nc(N)n1 [Compound 2G, N^4-(3-iodo-phenyl)-6-methyl-pyrimidine-2,4-diamine hydrochloride] |
| > 10000 nM | > 1000 nM | < 1000 nM | Cc1cc(Nc2cccc(C(F)(F)F)c2)nc(N)n1 [Compound 2H, 6-Methyl-N^4-(3-trifluoromethyl-phenyl)-pyrimidine-2,4-diamine, hydrochloride] |
| > 10000 nM | > 1000 nM | < 1000 nM | Cc1cc(Nc2ccc(F)cc2)nc(N)n1 [Compound 2I, N^4-(4-fluoro-phenyl)-6-methyl-pyrimidine-2,4-diamine hydrochloride] |
| > 10000 nM | > 1000 nM | < 100 nM | Cc1cc(Nc2ccc3c(c2)CCC3)nc(N)n1 [Compound 2J, N^4-indan-5-yl-6-methyl-pyrimidine-2,4-diamine hydrochloride] |
| > 10000 nM | > 10000 nM | < 1000 nM | Cc1cc(Nc2ccc(N3CCOCC3)cc2)nc(N)n1 [Compound 2K, 6-methyl-N^4-(4-morpholin-4-yl-phenyl)-pyrimidine-2,4-diamine hydrochloride] |
| > 1000 nM | > 1000 nM | < 1000 nM | Cc1cc(Nc2ccc(F)c(F)c2)nc(N)n1 [Compound 2M, N^4-(3,4-difluoro-phenyl)-6-methyl-pyrimidine-2,4-diamine hydrochloride] |
| > 1000 nM | > 1000 nM | < 1000 nM | Cc1cc(Nc2ccc(Cl)c(Cl)c2)nc(N)n1 [Compound 2N, N^4-(3,4-dichloro-phenyl)-6-methyl-pyrimidine-2,4-diamine hydrochloride] |
| > 1000 nM | > 100 nM | < 1000 nM | Cc1cc(Nc2cc(Br)ccc2O)nc(N)n1 [Compound 2O, 2-(2-amino-6-methyl-pyrimidin-4-ylamino)-4-bromo-phenol hydrochloride] |
| – | – | < 100 nM | Cc1cc(Nc2cccc(-c3cccc(O)c3)c2)nc(N)n1 [Compound 10G, 3′-(2-amino-6-methyl-pyrimidin-4-ylamino)-biphenyl-3-ol trifluoroacetic acid] |
| – | – | < 1000 nM | CC(=O)Nc1nc(-c2cccc(-c3ccccc3)c2)c[nH]1 [Compound 107, N-(4-biphenyl-3-yl-1H-imidazol-2-yl)-acetamide] |
| – | – | < 1000 nM | CC(C)c1cccc(-c2cccc(-c3cnc(N)o3)c2)c1 [Compound 209M, 5-(3′-Isopropyl-biphenyl-3-yl)-oxazol-2-ylamine, trifluoroacetic acid] |
| – | – | < 1000 nM | Cc1cccc(-c2cccc(-c3nc(N)oc3C)c2)c1 [Compound 218B, 5-Methyl-4-(3′-methyl-biphenyl-3-yl)-oxazol-2-ylamine, trifluoroacetic acid] |

| SMILES | Ki [1] | Ki [2] | Ki [3] |
| --- | --- | --- | --- |
| Cc1cc(Nc2cccc(F)c2)nc(N)n1 [Compound 2AN, N^4-(3-fluoro-phenyl)-6-methyl-pyrimidine-2,4-diamine] | > 10000 nM | > 1000 nM | < 1000 nM |
| Cc1cc(Nc2cc(Br)ccc2C)nc(N)n1 [Compound 2AP, N^4-(5-bromo-2-methyl-phenyl)-6-methyl-pyrimidine-2,4-diamine] | > 1000 nM | > 1000 nM | < 1000 nM |
